Reference: publication PMC10643130, “Molecular basis for selective uptake and elimination of organic anions in the kidney by OAT1” (Nature Structural & Molecular Biology, 2023)
Substitutions are numbered along the chain they refer to. Several values for one entry are separate records, joined by “and”; a condition that tells them apart may be missing. Equal values may be shown once. Read-outs that look alike come from different tables or passages of the source.

Experiments:
[1] = molecular target: T1, wild-type human OAT1 (HsOAT1) (Homo sapiens, UniProt Q4U2R8); experiment: Cell-based 6-CF transport assay, wild-type HsOAT1 in HeLa cells; details: for effect on OAT1 transport: 10 mM sodium phosphate; for 6-CF transport in presence of dicarboxylate, single experiments: dicarboxylate 0.5 mM, 8 minutes, n = 8
T1 sequence (Q4U2R8 1-563): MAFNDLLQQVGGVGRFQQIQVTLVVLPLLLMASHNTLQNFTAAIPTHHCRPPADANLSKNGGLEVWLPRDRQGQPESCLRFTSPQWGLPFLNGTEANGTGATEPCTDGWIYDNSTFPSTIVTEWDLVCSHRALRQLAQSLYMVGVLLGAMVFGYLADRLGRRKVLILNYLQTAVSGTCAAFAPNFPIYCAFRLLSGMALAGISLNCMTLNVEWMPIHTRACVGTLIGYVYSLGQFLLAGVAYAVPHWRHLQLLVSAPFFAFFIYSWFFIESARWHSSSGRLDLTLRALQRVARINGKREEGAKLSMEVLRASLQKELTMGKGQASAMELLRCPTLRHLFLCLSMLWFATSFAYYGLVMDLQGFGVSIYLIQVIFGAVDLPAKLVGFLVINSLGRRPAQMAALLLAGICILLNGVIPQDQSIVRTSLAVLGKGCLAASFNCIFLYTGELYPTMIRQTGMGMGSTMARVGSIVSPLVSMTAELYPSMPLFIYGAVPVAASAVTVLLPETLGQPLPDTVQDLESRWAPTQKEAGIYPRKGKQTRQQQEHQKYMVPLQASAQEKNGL
Method: (§1) To assay HsOAT1 transporter activity the model substrate 6-carboxyfluorescein (6-CF)[46],[47]
(§2) For transport assays, 1 × 10^5 cells per well were seeded into 24-well plates and 24 h later transfected using FUGENE HD (Promega E2311) Transfection Reagent (0.4 μg DNA per 1 μl of FUGENE per well) with HsOAT1 constructs containing a C-terminal FLAG tag in the vector pCDNA3.1 for 36 h. Expression of each mutant of HsOAT1 was assessed through western blotting on membrane fractions using an anti-FLAG antibody 1:3,000 dilution (Merck F1804), using a loading control of anti-β-actin 1:5,000 dilution (Merck A2228) (Extended Data Fig. 4). […] Background fluorescence was subtracted from cells transfected with the empty plasmid, and the data were normalized to 100%. To assess the activity of HsOAT1 in the presence and absence of chloride, the buffer was 120 mM NaCl, 28 mM glucose and 25 mM HEPES, pH 7.2 or for chloride-free conditions, and 120 mM sodium gluconate was used. […] To study the effect of ligands or inhibitors, the compound of interest was added to the assay buffer at the desired concentration. […] Each concentration was repeated three times to calculate standard errors, and the whole experiment was repeated three times to calculate the mean IC50 and standard error.

[2] = molecular target: T2, HsOAT1 truncation (lacks last 10 amino acids) (Homo sapiens, UniProt Q4U2R8); experiment: Cell-based 6-CF transport assay, truncated HsOAT1 lacking the last 10 amino acids; details: Truncation (+P), 0.1 mM pemetrexed
T2 construct: expressed in transfected cells; host or cells: HeLa
T2 sequence (Q4U2R8 1-552 limits assumed): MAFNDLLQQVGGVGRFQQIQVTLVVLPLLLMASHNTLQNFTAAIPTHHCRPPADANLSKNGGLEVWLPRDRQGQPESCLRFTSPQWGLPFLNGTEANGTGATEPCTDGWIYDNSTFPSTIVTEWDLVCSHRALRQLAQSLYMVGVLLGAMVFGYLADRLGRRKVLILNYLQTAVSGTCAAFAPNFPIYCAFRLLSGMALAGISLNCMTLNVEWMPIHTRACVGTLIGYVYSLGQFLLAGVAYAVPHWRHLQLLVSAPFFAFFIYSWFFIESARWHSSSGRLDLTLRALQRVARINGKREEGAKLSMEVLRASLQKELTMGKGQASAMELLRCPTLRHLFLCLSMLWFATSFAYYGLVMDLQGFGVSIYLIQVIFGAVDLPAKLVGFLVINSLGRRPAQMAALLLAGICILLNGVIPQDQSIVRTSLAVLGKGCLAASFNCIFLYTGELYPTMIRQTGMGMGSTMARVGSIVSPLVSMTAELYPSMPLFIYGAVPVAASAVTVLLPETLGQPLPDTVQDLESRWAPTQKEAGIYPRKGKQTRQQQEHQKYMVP

[3] = system: OAT2; details: cited from earlier work
[4] = system: OAT3; details: cited from earlier work
[5] = system: URAT1; details: cited from earlier work
[6] = molecular target: T1, wild-type human OAT1 (HsOAT1); experiment: cell-based
Method: as §1, §2

[7] = molecular target: T3, OAT1 Ser350Ala (S350A) mutant, human (Homo sapiens, UniProt Q4U2R8, S350A); experiment: Cell-based 6-CF transport assay, HsOAT1 Ser350Ala mutant; details: pH 7.2, probe 6-carboxyfluorescein (6-CF), 10 μM 6-CF, HeLa cells, mean ± s.d.
T3 sequence (Q4U2R8 1-563 S350A): T1 sequence (Q4U2R8 1-563) with S350A

[8] = molecular target: T4, human OAT1 Tyr230Phe (Y230F) (Homo sapiens, UniProt Q4U2R8, Y230F); experiment: Cell-based 6-CF transport assay, HsOAT1 Tyr230Phe mutant; details: 8 min
T4 sequence (Q4U2R8 1-563 Y230F): T1 sequence (Q4U2R8 1-563) with Y230F

[9] = molecular target: T5, human OAT1 Gly227Ala (G227A) (Homo sapiens, UniProt Q4U2R8, G227A); experiment: cell-based
T5 sequence (Q4U2R8 1-563 G227A): T1 sequence (Q4U2R8 1-563) with G227A

[10] = molecular target: T6, RnOat1 (Rattus norvegicus, UniProt O35956); experiment: Sybody binding by biolayer interferometry; set-up: unit not given here
T6 construct: made in house; host or cells: Sf9 insect cells (baculovirus)
T6 sequence (O35956 1-551): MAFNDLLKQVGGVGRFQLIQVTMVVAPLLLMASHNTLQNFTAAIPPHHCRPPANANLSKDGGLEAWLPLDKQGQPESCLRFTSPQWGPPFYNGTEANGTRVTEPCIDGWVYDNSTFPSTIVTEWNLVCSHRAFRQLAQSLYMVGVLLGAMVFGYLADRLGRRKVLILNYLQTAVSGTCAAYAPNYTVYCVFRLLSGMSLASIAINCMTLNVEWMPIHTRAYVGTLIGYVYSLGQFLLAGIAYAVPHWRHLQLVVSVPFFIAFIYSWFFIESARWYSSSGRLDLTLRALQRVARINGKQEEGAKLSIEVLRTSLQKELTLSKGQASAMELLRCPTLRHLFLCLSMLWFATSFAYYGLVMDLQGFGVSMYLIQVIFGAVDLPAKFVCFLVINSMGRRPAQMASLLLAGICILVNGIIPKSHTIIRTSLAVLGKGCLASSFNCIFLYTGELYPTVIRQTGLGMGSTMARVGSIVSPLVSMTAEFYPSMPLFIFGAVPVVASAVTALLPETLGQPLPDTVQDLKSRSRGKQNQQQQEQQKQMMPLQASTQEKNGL
Method: Sybody selection was performed against C-terminally Avi-Flag-tagged and biotinylated RnOat1 using methods described previously in ref. [48]. A high-affinity sybody with a slow off rate, as measured using biolayer interferometry (Octet Red 384), was identified from the concave library. The sybody was cloned and expressed as a C-terminally MycHis tagged construct from the pSB-init vector (Addgene no. 110100), (pSB_Syb25 Addgene no. 197992).

[11] = molecular target: T7, Biotinylated RnOat1 with a C-terminal Avi-tag followed by a FLAG tag (Rattus norvegicus, UniProt O35956, biotin (on the Avi-tag, by GST-BirA)); experiment: BLI; Octet Red 384; who was immobilised and the buffer are not told; n = 4 independent experiments; details: both partners purified
T7 construct: Organic anion transporter 1 (Oat1, Slc22a6) of Rattus norvegicus; Used for the sybody selection; The host is likely Sf9 as for the structural construct (surmise); also called C-terminally Avi-Flag-tagged and biotinylated RnOat1; not shown: Avi-tag, C-terminal, kept

[12] = 8 min, read-out: 6-CF uptake, Mean

Nc1nc2[nH]cc(CCc3ccc(C(=O)N[C@@H](CCC(=O)O)C(=O)O)cc3)c2c(=O)[nH]1 [pemetrexed]
inhibition of 6-CF uptake ([1]; 0.1 mM in assay buffer): fully inhibited
substrate quality in 6-CF assay ([1]; 0.5 mM, uptake after 8 minutes, similar to literature ref 20): poor substrates
6-CF uptake, MEAN ([1]; WT (+P), 0.1 mM pemetrexed, 1 min): 22
6-CF uptake, MEAN ([1]; WT (+P), 0.1 mM pemetrexed, 5 min): 18.75
6-CF uptake, MEAN ([1]; WT (+P), 0.1 mM pemetrexed, 8 min): 24.75
6-CF uptake, MEAN ([1]; WT (+P), 0.1 mM pemetrexed, 10 min): 17.25
6-CF uptake in presence of substrate, single experiments ([1]; substrate 0.5 mM, uptake after 8 minutes): 71%
6-CF uptake, MEAN ([2]; 1 min): 19.52
6-CF uptake, MEAN ([2]; 5 min): 17.65
6-CF uptake, MEAN ([2]; 8 min): 16.52
6-CF uptake, MEAN ([2]; 10 min): 12.32

O=P(O)(O)O [phosphate, sodium phosphate]
effect on OAT1 transport [1]: no impact
effect on OAT1 transport ([1]; listed as sodium phosphate): no effect

O=C(O)CCCCCC(=O)O [pimelate]
6-CF transport in presence of dicarboxylate, single experiments [1]: 18.1607% and 12.7635% and 14.6181% and 17.3198% and 16.4606% and 11.6692%

CCCN(CCC)S(=O)(=O)c1ccc(C(=O)O)cc1 [probenecid]
inhibition of OAT2 [3]: poor inhibitor
inhibition of OAT3 [4]: inhibitor
inhibition of URAT1 [5]: inhibitor

O=C(O)CCC(=O)O [succinate]
6-CF transport in presence of dicarboxylate, single experiments [1]: 62.6553% and 71.4816% and 66.0745% and 69.225% and 69.843% and 74.8162% and 55.8733% and 76.8934%

C[C@H](Cn1cnc2c(N)ncnc21)OCP(=O)(O)O [tenofovir]
6-CF uptake, MEAN [1]: 99%
6-CF uptake, MEAN ([1]; WT Tenofovir, uM column 2): 79%
6-CF uptake, MEAN ([1]; WT Tenofovir, uM column 2.30103): 65%
6-CF uptake, MEAN ([1]; WT Tenofovir, uM column 2.60206): 35%
6-CF uptake, MEAN ([1]; WT Tenofovir, uM column 3): 24%
6-CF uptake, MEAN ([1]; WT Tenofovir, uM column 3.17609): 12%
IC50 [6]: 120 ± 19 µM
IC50 at 8 min [7]: 241 ± 11 µM
remaining activity at 1 µM ([8]; read-out: 6-CF uptake, Mean): 99%
remaining activity at 2 µM ([8]; read-out: 6-CF uptake, Mean): 95.2%
remaining activity at 2.30103 µM ([8]; read-out: 6-CF uptake, Mean): 87%
remaining activity at 2.60206 µM ([8]; read-out: 6-CF uptake, Mean): 68.5%
remaining activity at 3 µM ([8]; read-out: 6-CF uptake, Mean): 52.3%
remaining activity at 3.17609 µM ([8]; read-out: 6-CF uptake, Mean): 35%
IC50 ([8]; Tyr230Phe, 10 μM 6-CF, HeLa cells, mean ± s.d.): 450 ± 26 µM
remaining activity at 1 µM [9, 12]: 99.8%
remaining activity at 2 µM [9, 12]: 82.7%
remaining activity at 2.30103 µM [9, 12]: 69.5%
remaining activity at 2.60206 µM [9, 12]: 40.3%
remaining activity at 3 µM [9, 12]: 31.2%
remaining activity at 3.17609 µM [9, 12]: 15.6%
effect of Gly227Ala mutant on tenofovir recognition ([9]; versus wild type, Fig. 2f): no discernible effect

B1: Sybody (synthetic nanobody) against RnOat1, Syb25 (VHH)
VHH: QVQLVESGGGLVQAGGSLRLSCAASGFPVKTEWMEWYRQAPGKEREWVAAIWSYGSGTRYADSVKGRFTISRDNAKNTVYLQMNSLKPEDTAVYYCLVRVGSWYHGQGTQVTVSA
notes: selected from the concave sybody library; source: expressed from the pSB-init vector
binding response (ED Fig 3e source data) ([10]; Conc. 7.81 nM): 0.004
binding response (ED Fig 3e source data) ([10]; Conc. 15.625 nM): 0.0165
binding response (ED Fig 3e source data) ([10]; Conc. 31.25 nM): 0.04633
binding response (ED Fig 3e source data) ([10]; Conc. 62.5 nM): 0.1353
binding response (ED Fig 3e source data) ([10]; Conc. 250 nM): 0.201
binding response (ED Fig 3e source data) ([10]; Conc. 500 nM): 0.2162
binding response (ED Fig 3e source data) ([10]; Conc. 1000 nM): 0.2225
binding response (ED Fig 3e source data) ([10]; Conc. 2000 nM): 0.23
Kd [11]: 0.075 µM
